Values of other authors as cited in patent US20230218596A1 (MEREO BIOPHARMA 4 LIMITED, priority 2020, published 2023).
Like-named read-outs stand apart in the source and are kept apart here.

How the values were obtained:
NE [1] = target: T1, NE (Homo sapiens, UniProt P08246); details: cell-associated assay; cited from earlier work
bronchiectasis = bronchiectasis patients, 4-week duration; cited from earlier work
cystic fibrosis = cystic fibrosis patients, 4-week duration; cited from earlier work
ARDS = details: experimental models of ARDS; cited from earlier work
[2] = tested on: NE from other species, including mice; details: cited from earlier work
NE [3] = target: T1, NE; details: whole-blood assay; cited from earlier work
human NE = target: T2, human NE (Homo sapiens, UniProt P08246); details: cited from earlier work
T2 sequence (P08246 30-267): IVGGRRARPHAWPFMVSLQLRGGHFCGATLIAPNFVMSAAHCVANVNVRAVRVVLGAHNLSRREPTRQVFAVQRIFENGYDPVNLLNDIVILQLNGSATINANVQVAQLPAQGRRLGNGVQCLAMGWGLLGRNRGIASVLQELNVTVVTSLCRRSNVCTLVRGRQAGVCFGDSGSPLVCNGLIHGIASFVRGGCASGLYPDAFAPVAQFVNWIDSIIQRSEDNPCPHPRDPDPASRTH

Cc1c(-c2ccnn2C)cc(C(=O)NCc2ccc(S(C)(=O)=O)cn2)c(=O)n1-c1cccc(C(F)(F)F)c1 [Alvelestat, N-{[5-(methanesulfonyl)pyridin-2-yl]methyl}-6-methyl-5-(1-methyl-1H-pyrazol-5-yl)-2-oxo-1-[3-(trifluoromethyl)phenyl]-1,2-dihydropyridine-3-carboxamide]
IC50 (NE [1]): 48 nM | lung function and inflammation (bronchiectasis): clinically significant improvement | biomarkers of elastase activity and inflammation (cystic fibrosis): significant decrease | lung inflammation and injury (ARDS): protected the lung from inflammation and injury | crossover potency for NE from other species [2]: good crossover potency | IC50 (NE [3]): 44 nM | reversibility of inhibition (human NE): rapidly reversible
